Measured values taken from patent US20080207728A1, “BICYCLIC ACYLTRYPTOPHANOLS” (priority 2006, published 2008).
pIC50: −log10 of the molar value.

Target: T1, human FSH receptor (Homo sapiens, UniProt P23945)
T1 construct: expressed in transfected cells; host or cells: CHO cells (hFSHR clone 16)
T1 sequence (P23945 18-695): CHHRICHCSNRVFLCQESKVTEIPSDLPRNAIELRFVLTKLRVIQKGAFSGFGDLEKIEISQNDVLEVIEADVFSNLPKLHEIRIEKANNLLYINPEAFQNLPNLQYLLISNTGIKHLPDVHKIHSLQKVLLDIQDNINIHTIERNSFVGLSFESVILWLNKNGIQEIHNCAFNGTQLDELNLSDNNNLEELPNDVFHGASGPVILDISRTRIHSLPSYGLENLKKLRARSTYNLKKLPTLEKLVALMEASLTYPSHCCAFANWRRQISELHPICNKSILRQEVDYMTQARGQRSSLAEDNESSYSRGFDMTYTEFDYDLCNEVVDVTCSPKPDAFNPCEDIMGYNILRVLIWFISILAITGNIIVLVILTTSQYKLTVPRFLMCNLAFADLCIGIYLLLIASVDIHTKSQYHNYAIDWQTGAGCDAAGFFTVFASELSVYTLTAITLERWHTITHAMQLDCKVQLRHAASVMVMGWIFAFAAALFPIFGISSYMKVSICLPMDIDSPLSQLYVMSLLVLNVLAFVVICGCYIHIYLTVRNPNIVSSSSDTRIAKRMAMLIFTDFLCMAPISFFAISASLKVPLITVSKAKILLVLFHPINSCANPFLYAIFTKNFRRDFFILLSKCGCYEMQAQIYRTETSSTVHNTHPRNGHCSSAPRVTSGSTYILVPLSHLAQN
Assay: HTRF assay for measuring cAMP in cells (FSH antagonism)
Format: cell-based
Conditions: Table 1; hFSHR clone 16 cells (CHO cells stably transfected with the human FSH receptor), in the presence of 1e-9 mol/l hFSH, 37° C. for 2 h; read-out: IC50 (FSH-antagonistic effect in the HTRF assay)
Procedure: HTRF Assay for Measuring cAMP in Cells
The method is based on a competitive immunoassay between native cAMP, which has been produced by the cells, and cAMP which is labelled with XL665. The tracer binding was visualized by a monoclonal antibody, anti-cAMP labelled with cryptate [HTRF=homogeneous time-resolved fluorescence].
The specific signal is inversely proportional to the cAMP concentration of the samples employed.
The 665 nm/620 nm fluorescence ratio was evaluated.
The following material was used: 96-well plates for the tissue culture, 96-well plates with black edge and black base (e.g. Fluotrac 600 from Greiner), 96-well plates for the substance dilutions of polypropylene and cAMP Femtomolar (4000 wells Kit, CIS Bio International # 62AM1PEC).
The following reagents were used: BSA (bovine serum albumin) Fraction V protease-free, IBMX (3-isobutyl-1-methylxanthine), hFSH (human follicle stimulating hormone), Triton X-100 analytical grade, potassium fluoride analytical grade, G 418 (Geneticin) and Accutase.
Buffer 1 (washing and testing buffer) contained PBS, 1 mM CaCl2, 1 mM MgCl2, 0.2% glucose; 0.1% BSA, 1 mM IBMX.
Buffer 2 (2× lysis buffer) contained 1% Triton X-100 in PBS (without CaCl2 and MgCl2).
Buffer 3 (assay buffer) contained 50 mM potassium phosphate buffer (pH 7.0); 800 mM potassium fluoride; 0.2% BSA (always added fresh).
On day 1, the cells were seeded in 96-well plates (3×10^4 cells per well hFSHR clone 16 cells (CHO cells stably transfected with the human FSH receptor in 150 μl of medium).
The next day, test substance dilutions were made up. For this purpose, all the substances were diluted in ice-cold buffer 1 (with or without hFSH), and the substance dilutions were placed on ice until applied to the cells.
The cell supernatant was then aspirated off, and the cells were washed 2× with 200 μl of buffer 1. The cells were treated with 60 μl of the appropriate substance concentrations at 37° C. for 2 h. The cells were then lysed with 60 μl of buffer 2 (put onto the supernatant) (on a plate shaker at RT for 30 min).
The test conjugates (XL-665 and anti-cAMP cryptate) were diluted in buffer 3 in accordance with the manufacturers' information. The actual mixture for measurement was pipetted into a black 96-well plate (in each case 15 μl of the cell lysate diluted with 35 μl of buffer 1; firstly 25 μl of XL-665 conjugate were pipetted and, after 10 min, 25 μl of the anti-cAMP cryptate were added). This is followed by incubation at RT for 90 minutes. The measurement was carried out in a PheraStar (BMG).
Tissue Culture Conditions
Dose-effect curve (hFSH) for the human receptor: 1e-8, 3e-9, 1 e-9, 3e-10, 1 e-10, 3e-11, 1e-11, 3e-12 mol/l.
The test substances were employed in suitable dilutions in the absence (test for agonism) and in the presence of 1e-9 mol/l hFSH.
The values of the well ratio were averaged and then entered directly in SigmaPlot versus the concentrations. The maximum and minimum values were determined for each plate, and half the difference is to be regarded as IC50.

SMILES	pIC50
O=C(NC(CO)Cc1c[nH]c2cc(F)ccc12)c1cc(/C=C/c2ccccc2)cc2c1OCCCC2 (stereo not drawn) [Example 83, 7-((E)-Styryl)-2,3,4,5-tetrahydro-benzo[b]oxepine-9-carboxylic acid [2-(6-fluoro-1H-indol-3-yl)-1-hydroxymethyl-ethyl]-amide]	6.46
COc1ccccc1C#Cc1cc2c(c(C(=O)N[C@@H](CO)Cc3c[nH]c4ccccc34)c1)OCCO2 [Example 85, 7-(2-Methoxy-phenylethynyl)-2,3-dihydro-benzo[1,4]dioxine-5-carboxylic acid [(R)-1-hydroxymethyl-2-(1H-indol-3-yl)-ethyl]-amide]	6.70
CNC(=O)c1ccc(-c2cc3c(c(C(=O)NC(CO)Cc4c[nH]c5cccc(F)c45)c2)OC(C)(C)C=C3)cc1Cl (stereo not drawn) [Example 88, 6-(3-Chloro-4-methylcarbamoyl-phenyl)-2,2-dimethyl-2H-chromene-8-carboxylic acid [2-(4-fluoro-1H-indol-3-yl)-1-hydroxymethyl-ethyl]-amide]	7.52
CNC(=O)c1cccc(C#Cc2cc3c(c(C(=O)N[C@@H](CO)Cc4c[nH]c5ccccc45)c2)OC(C)(C)C=C3)c1 [Example 11, 2,2-Dimethyl-6-(3-methylcarbamoyl-phenylethynyl)-2H-chromene-8-carboxylic acid [(R)-1-hydroxymethyl-2-(1H-indol-3-yl)-ethyl]-amide]	7.52

More lines, now with the values ahead:

pIC50	SMILES
5.52	Cc1cc(C)cc(-c2cc3c(c(C(=O)N[C@@H](CO)Cc4c[nH]c5ccccc45)c2)OCC3)c1 [Example 78, 5-(3,5-Dimethyl-phenyl)-2,3-dihydro-benzofuran-7-carboxylic acid [(R)-1-hydroxymethyl-2-(1H-indol-3-yl)-ethyl]-amide]
5.70	CNC(=O)c1ccc(-c2cc3c(c(C(=O)N[C@@H](CO)Cc4c[nH]c5ccccc45)c2)OCC3)cc1 [Example 65, 5-(4-Methylcarbamoyl-phenyl)-2,3-dihydro-benzofuran-7-carboxylic acid [(R)-1-hydroxymethyl-2-(1H-indol-3-yl)-ethyl]-amide]
5.40	CNC(=O)c1cc(F)cc(-c2cc3c(c(C(=O)N[C@@H](CO)Cc4c[nH]c5ccccc45)c2)OCC3)c1 [Example 82, 5-(3-Fluoro-5-methylcarbamoyl-phenyl)-2,3-dihydro-benzofuran-7-carboxylic acid [(R)-1-hydroxymethyl-2-(1H-indol-3-yl)-ethyl]-amide]

Same assay, conditions: Table 2; hFSHR clone 16 cells (CHO cells stably transfected with the human FSH receptor), in the presence of 1e-9 mol/l hFSH, 37° C. for 2 h; read-out: IC50 (FSH-antagonistic effect in the HTRF assay)

pIC50	SMILES
5.52	O=C(N[C@@H](CO)Cc1c[nH]c2ccccc12)c1cc(-c2cccc(Cl)c2)cc2c1OCCO2 [Example 130, 7-(3-Chloro-phenyl)-2,3-dihydro-benzo[1,4]dioxine-5-carboxylic acid [(R)-1-hydroxymethyl-2-(1H-indol-3-yl)-ethyl]-amide]
5.70	CN(C)S(=O)(=O)c1ccc(-c2cc3c(c(C(=O)N[C@@H](CO)Cc4c[nH]c5ccccc45)c2)OCCO3)cc1 [Example 123, 7-(4-Dimethylsulfamoyl-phenyl)-2,3-dihydro-benzo[1,4]dioxine-5-carboxylic acid [(R)-1-hydroxymethyl-2-(1H-indol-3-yl)-ethyl]-amide]
